Reference: US6797461B2, “Tryptase substrates and assay for tryptase activity using same” (Promega Corporation, priority 2000, dated 2004)
Residues, ends and D or L forms follow the SMILES beside them. *: point of attachment. ACC = NC(=O)Cc1cc(=O)oc2cc(N*)ccc12

Columns and labels:
Type in all cases: biochemical
[1] = target: T1, recombinant human β-I tryptase (skin tryptase) (Homo sapiens, UniProt Q15661); assay: Single substrate kinetic analysis of fluorogenic ACC substrates, skin (β-I) tryptase
T1 construct: Secreted mature βI- and βII-tryptases were purified to homogeneity; made in house; host or cells: Pichia pastoris
T1 sequence (Q15661 31-275): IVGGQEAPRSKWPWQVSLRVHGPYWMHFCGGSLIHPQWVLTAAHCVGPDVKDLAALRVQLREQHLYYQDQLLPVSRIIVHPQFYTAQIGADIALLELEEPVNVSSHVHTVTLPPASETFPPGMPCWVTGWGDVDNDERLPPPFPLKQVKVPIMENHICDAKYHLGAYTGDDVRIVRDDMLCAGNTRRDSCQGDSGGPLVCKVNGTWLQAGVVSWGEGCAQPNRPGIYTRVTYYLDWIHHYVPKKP
Experimental: (§1) βI- and βII-tryptase concentrations ranged from 5 nM to 15 nM. The final concentration of substrate ranged from 5 μM to 200 μM; the concentration of DMSO in the assay was less than 5%. Hydrolysis of ACC substrates was monitored fluorometrically with an excitation wavelength of 380 nm and an emission wavelength of 460 nm on a Fluoromax-2 spectrofluorimeter.
(§2) Tryptase activity was monitored at 30° C. in assay buffer containing 100 mM HEPES, pH 7.5, 10% w/v glycerol, and 0.1 mg/ml heparin. Substrate stock solutions were prepared in DMSO. The final concentration of substrate ranged from 5 μM to […], the concentration of DMSO in the assay was less than 5%. Tryptase concentration was 5 nM.
(§3) Hydrolysis of ACC substrates was monitored fluorometrically with an excitation wavelength of 380 nm and emission wavelength of 450 nm on a Fluoromax-2 spectrofluorimeter. The amino-terminus of each polypeptide was acetylated.
(§4) To quantitate tryptase βI and βII dependence on extended substrate specificity, several peptide substrates were synthesized and the kinetic constants determined for each of the enzymes. […] All of these effects are manifested in the Km term, not the kcat term.
(§5) Kinetic parameters were independently obtained for both recombinant β-I and β-II tryptases against rational substitutions in the substrates at P2-P4 positions.

[2] = system: T2, recombinant human β-II tryptase (lung tryptase) (Homo sapiens, N132K); assay: Single substrate kinetic analysis of fluorogenic ACC substrates, lung (β-II) tryptase
T2 construct: Secreted mature βI- and βII-tryptases were purified to homogeneity; made in house; host or cells: Pichia pastoris GS115
T2 sequence (Q15661 31-275 N132K): as the sequence (Q15661 31-275) above, with N102K counted along it
Experimental: as §1, §2, §3, §4, §5

[3] = system: non-tryptase proteolysis in human serum; assay: Non-tryptase proteolytic activities in serum with protease inhibitors (FIG. 9); conditions: 25 μg/ml, 30 minutes at room temperature, Ac-PRNK-ACC 100 μM
Experimental: Human recombinant β-I tryptase (Promega) was two-fold serially diluted in human serum from 10,000 pg to 190 pg/ml. Aprotinin, Soybean trypsin inhibitor (SBTI) or anti-trypsin was added to each dilution at 25 μg/ml and allowed to incubate at room temperature for 30 minutes. An uninhibited serum standard curve was similarly created. 100 μl of each treated and untreated serum dilution was pipetted in triplicate to a microtiter well plate. Ac-PRNK-ACC (SEQ. ID. NO: 12) was added to 100 μM and the plate incubated at room temperature for 10 minutes prior to reading at an excitation wavelength of 355 nm and emission wavelength of 460 nm.

[4] = Skin (β-I) Tryptase, 30° C., 100 mM HEPES pH 7.5, 10% glycerol, 0.1 mg/ml heparin
[5] = Lung (β-II) Tryptase, 30° C., 100 mM HEPES pH 7.5, 10% glycerol, 0.1 mg/ml heparin

Molecule	Km [1, 4]	activity relative to Ac-PRNK-ACC substrate (kcat/Km) ([1]; tryptase βI, range stated over tryptase βI and βII)	Km [2, 5]	activity relative to Ac-PRNK-ACC substrate (kcat/Km) ([2]; tryptase βII, range stated over tryptase βI and βII)	kcat [1, 4]	kcat [2, 5]	effect on intrinsic fluorescence associated with non-tryptase proteolysis in serum [3]
CC(=O)N1CCC[C@H]1C(=O)N[C@@H](CCCNC(=N)N)C(=O)N[C@@H](CC(N)=O)C(=O)N[C@@H](CCCNC(=N)N)C(=O)Nc1ccc2c(CC(N)=O)cc(=O)oc2c1 [Ac-PRNR-ACC] (Ac-PRNR-{ACC})	18.6 ± 2.6 µM	70-90%	16.5 ± 2.7 µM	70-90%	–	–	–
Ac-PANK-ACC: acetylated tetrapeptide P-A-N-K with C-terminal 7-amino-4-carbamoylmethyl-coumarin leaving group	133 ± 15.6 µM	–	110 ± 9.8 µM	–	19.06 ± 0.64 s⁻¹	20.27 ± 0.48 s⁻¹	–
CC(=O)N1CCC[C@H]1C(=O)N[C@@H](CCCNC(=N)N)C(=O)N[C@@H](CC(N)=O)C(=O)N[C@@H](CCCCN)C(=O)Nc1ccc2c(CC(N)=O)cc(=O)oc2c1 [Ac-PRNK-ACC, Acetyl-Prolyl-Arginyl-Asparaginyl-Lysyl-aminoacetamide coumarin] (Ac-PRNK-{ACC})	14.5 ± 1.9 µM	–	8.9 ± 0.9 µM	–	–	–	–
aprotinin	–	–	–	–	–	–	significantly and specifically diminished
CC(=O)N1CCC[C@H]1C(=O)N[C@@H](CCCNC(=N)N)C(=O)N[C@H](C(=O)N[C@@H](CCCCN)C(=O)Nc1ccc2c(CC(N)=O)cc(=O)oc2c1)[C@@H](C)O [Ac-PRTK-ACC] (Ac-PRTK-{ACC})	23.4 ± 2.3 µM	–	14.7 ± 1.4 µM	–	–	–	–
